Experimental data published in patent US20120070417A1, “ANTI-INFLUENZA FORMULATIONS AND METHODS” (priority 2009, published 2012).
Read-outs that look alike come from different tables or passages of the source.

Tested on: Influenza A/WSN/33/1
Assay type: cell-based

In the case of `CCOC(=O)C1=C[C@@H](OC(CC)CC)[C@H](NC(C)=O)[C@@H](N)C1` [oseltamivir, (3R,4R,5S)-4-acetylamino-5-amino-3(1-ethylpropoxy)-1-cyclohexene-1-carboxylic acid ethyl ester], the “reduced influenza titers compared to untreated (air) control” value (shortened to “reduced influenza titers”) (1 nM oseltamivir in basolateral media) is reported as 5 fold.

In the case of `NC(=O)c1ncn([C@@H]2O[C@H](CO)[C@@H](O)[C@H]2O)n1` [ribavirin], the “reduced influenza titers” value (10 nM ribavirin in basolateral media, p>0.05) is reported as 6.3 fold.

`CC(N)C12CC3CC(CC(C3)C1)C2` (stereo not drawn) [rimantadine] was tested, and the “reduced influenza titers” value (1 nM rimantadine in basolateral media, p>0.05) was 9.6 fold and the “reduced viral titers compared to the untreated control” value (10 nM rimantadine in basolateral media, p<0.001) was 185 fold.

In the case of `CC(=O)NC1[C@@H](NC(=N)N)C=C(C(=O)O)O[C@H]1[C@H](O)[C@H](O)CO` (stereo partly drawn) [zanamivir, 5-(acetylamino)-4-[(aminoiminomethyl)-amino]-2,6-anhydro-3,4,5-trideoxy-D-glycero-D-galacto-non-2-enoic acid], the “reduced viral titers compared to the untreated control” value (0.1 nM zanamivir alone) is reported as 40 fold and the “viral infection, dose response” value ([…], p<0.01 vs untreated (Air) control) is reported as “reduced viral infection in a dose responsive manner”.
